Assay results reported in BindingDB's records for doi:10.7270/Q2Z899TZ (Columbia University Molecular Screening Center, 2007).

Biological target: T1, Tyrosine-protein phosphatase non-receptor type 22 (Homo sapiens, UniProt Q9Y2R2)
T1 sequence (Q9Y2R2 whole entry): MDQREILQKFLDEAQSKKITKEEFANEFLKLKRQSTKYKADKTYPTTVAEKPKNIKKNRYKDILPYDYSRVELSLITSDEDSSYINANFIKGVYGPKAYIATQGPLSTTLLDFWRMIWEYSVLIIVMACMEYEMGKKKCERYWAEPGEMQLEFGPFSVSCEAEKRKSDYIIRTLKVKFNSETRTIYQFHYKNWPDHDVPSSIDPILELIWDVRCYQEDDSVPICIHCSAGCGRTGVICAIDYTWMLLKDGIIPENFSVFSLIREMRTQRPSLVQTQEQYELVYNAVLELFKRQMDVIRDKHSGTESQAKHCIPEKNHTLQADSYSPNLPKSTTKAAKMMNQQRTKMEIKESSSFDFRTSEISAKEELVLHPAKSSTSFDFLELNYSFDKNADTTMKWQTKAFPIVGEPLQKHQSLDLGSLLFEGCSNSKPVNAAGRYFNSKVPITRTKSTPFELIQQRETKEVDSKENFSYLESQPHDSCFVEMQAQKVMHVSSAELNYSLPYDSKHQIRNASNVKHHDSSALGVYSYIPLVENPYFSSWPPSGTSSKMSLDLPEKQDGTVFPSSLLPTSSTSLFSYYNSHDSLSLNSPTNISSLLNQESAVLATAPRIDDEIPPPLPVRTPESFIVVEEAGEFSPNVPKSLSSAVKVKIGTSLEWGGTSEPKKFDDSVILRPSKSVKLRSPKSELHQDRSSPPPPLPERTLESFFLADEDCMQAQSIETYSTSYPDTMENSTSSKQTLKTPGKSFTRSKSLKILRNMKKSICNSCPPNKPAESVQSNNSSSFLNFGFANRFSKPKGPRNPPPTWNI
Assay: LYP phosphatase inhibitors, primary screen, biochemical, DiFMUP fluorescence, recombinant catalytic domain, 10 µM (AID 606)

Compound	IC50
COc1ccc(Cn2c(C)nc3c(c2=O)c2nc4ccccc4nc2n3Cc2ccco2)cc1 [MLS000079944]	1780 nM
CC(C)Cn1c(N)c(C(=O)COC(=O)c2cc(-c3ccco3)nc3ccccc23)c(=O)n(C)c1=O [2-(2-furanyl)-4-quinolinecarboxylic acid [2-[4-amino-1-methyl-3-(2-methylpropyl)-2,6-dioxo-5-pyrimidinyl]-2-oxoethyl] ester]	5810 nM
CCn1nc(-c2ccccc2)nc2c(=O)n(C)c(=O)nc1-2 [1-Ethyl-6-methyl-3-phenyl-1H-pyrimido[5,4-e][1,2,4]triazine-5,7-dione]	1660 nM
Cc1ccc2c(c1C)NC(C(=O)O)C1CC=CC21 (stereo unspecified)	940 nM
CCCCC[C@H](O)C=C[C@H]1C=CC(=O)[C@@H]1C/C=C\CCCC(=O)O [(Z)-7-[(1R,5S)-2-oxidanylidene-5-[(E,3S)-3-oxidanyloct-1-enyl]cyclopent-3-en-1-yl]hept-5-enoic acid]	6690 nM
O=C1C=Cc2ccccc2/C1=C/NC12CN3CCN(CN(C3)C1)C2 [MLS000071484]	> 40000 nM
